The text below walks through data of US20250100962A1 (CITY OF HOPE, priority 2023, published 2025).

This data set concerns C2C12 myoblast cell line. As to the kind of experiment: MTT cell viability of C2C12 myoblasts. Type of data set: cell-based. As to conditions: 0.2-5 μM for 48 hours. As to the method:
Cells were seeded at 5×10^4 concentration in 100 μl culture medium into 96 wells flat bottom microplates and treated after 24 h with desired compounds and controls. After desired incubation periods, cells were treated with MTT labeling reagent 1× (MTT (3-[4,5-dimethylthiazol-2-yl]-2,5-diphenyltetrazolium bromide labeling reagent, 5 mg/ml in PBS, Roche Cell Proliferation Kit I (MTT)) and Solubilization buffer 1× (10% SDS in 0.01 M HCl and left overnight. Next morning absorbance was measured at 570 nm and 700 nm on microplate (ELISA) reader (TECAN infinite M200pro). The mean and standard deviation values were calculated for each well and graphed.
FIGS. 41A-41D. Effect of Chlorhexidine (CHX) and CM002 treatment on viability of mouse and human myoblasts. To determine potential toxic effects of CHX and CM002, we treated mouse C2C12 myoblast cell line with increasing concentrations from 0.2-5 μM for 48 hours and determined cell viability using the MTT assay (FIG. 41A). […] Considering the inflammatory milieus in dystrophic muscles, we further tested the tolerance of myoblasts to these molecules in the presence of inflammatory stimuli, a cytokine cocktail (CC) consisted of 10 ng/mL IL-1β, 100 ng/mL IFN-γ and 25 ng/mL of TNF-α (FIG. 41B). […] Lastly, human primary myoblasts derived from Duchene Muscular Dystrophy (DMD) patients were used to determine their tolerance to these compounds.

For the compound `[H]/N=C(\N/C(=N/[H])NCCCCCCNC(=N)NC(=N)Nc1ccc(Cl)cc1)Nc1ccc(Cl)cc1` [CHX, chlorhexidine], the “concentration at which number of viable cells drops” value stood at 2500 nM.
